Experimental data taken from PubChem BioAssay (NCI).
Values joined by “and” are separate entries in the source; they are usually repeats but may differ in a detail not shown here. Equal values may be shown once.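 Protocol summary: plate cells (96-well), add compound at 5 concentrations, incubate 48 h, interpolate endpoints linearly. The concentration for 50% growth inhibition is given as GI50. TGI is the concentration that stops growth completely.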

Legend:
Test in all cases: inhibition of tumour cell growth, NCI panel, 48 h
BT-549 breast = test system: BT-549 breast
HOP-92 NSCLC = test system: HOP-92 NSCLC
M14 melanoma = test system: M14 melanoma
MCF7 breast = test system: MCF7 breast
MDA-MB-231 breast = test system: MDA-MB-231 breast
NCI-H23 lung = test system: NCI-H23 lung
NCI-H522 lung = test system: NCI-H522 lung
SF-268 CNS = test system: SF-268 CNS
SN12C renal = test system: SN12C renal
SW-620 colon = test system: SW-620 colon

## CCCC[P+](c1ccccc1)(c1ccccc1)c1ccccc1
BT-549 breast
  GI50: 3.32 µM
  TGI: 74.7 µM
HOP-92 NSCLC
  GI50: 0.675 µM
  TGI: 6.58 µM
M14 melanoma
  GI50: 6.79 µM
  TGI: > 100 µM
MCF7 breast
  GI50: 1.33 µM
  TGI: > 100 µM
MDA-MB-231 breast
  GI50: 9.13 µM
  TGI: > 100 µM
NCI-H23 lung
  GI50: 2.57 µM
  TGI: 32.6 µM
NCI-H522 lung
  GI50: 1.22 µM
  TGI: 6.85 µM
SF-268 CNS
  GI50: 5.66 µM
  TGI: > 100 µM
SN12C renal
  GI50: 4.35 µM
  TGI: > 100 µM
SW-620 colon
  GI50: 3.46 µM
  TGI: > 100 µM

## CCCCCC(=O)OCC(=O)O[C@@H]1C[C@]2(C(C)C)O[C@@]1(C)[C@@H]1CC[C@@H](C)[C@H]1[C@@H]2OC(=O)/C=C/c1ccccc1
BT-549 breast
  GI50: 0.0923 µM
  TGI: 14.4 µM
HOP-92 NSCLC
  GI50: 12.8 µM
  TGI: > 74.5 µM
M14 melanoma
  GI50: > 53.4 µM
  TGI: > 100 µM
MCF7 breast
  GI50: > 32.9 µM
  TGI: > 100 µM
MDA-MB-231 breast
  GI50: > 57.5 µM
  TGI: > 80.5 µM
NCI-H23 lung
  GI50: > 52.8 µM
  TGI: > 75.7 µM
NCI-H522 lung
  GI50: 38.2 µM
  TGI: > 76.5 µM
SF-268 CNS
  GI50: 4.08 µM
  TGI: > 84.7 µM
SN12C renal
  GI50: 2.9 µM
  TGI: > 78.7 µM
SW-620 colon
  GI50: > 40.7 µM
  TGI: > 67.6 µM

## O=C(Nc1cccc2cccnc12)c1ccc(N2C(=O)[C@@H]3[C@H](C2=O)[C@@H]2C=C[C@H]3C2)cc1
BT-549 breast
  GI50: 16.3 µM
  TGI: > 83.3 µM
HOP-92 NSCLC
  GI50: 15.5 µM
  TGI: > 94.3 µM
M14 melanoma
  GI50: 34.9 µM
  TGI: > 100 µM
MCF7 breast
  GI50: 25.1 µM
  TGI: > 100 µM
MDA-MB-231 breast
  GI50: 33.2 µM
  TGI: > 100 µM
NCI-H23 lung
  GI50: 23.5 µM
  TGI: > 100 µM
NCI-H522 lung
  GI50: 18.4 µM
  TGI: 54.4 µM
SF-268 CNS
  GI50: 35.7 µM
  TGI: > 100 µM
SN12C renal
  GI50: 28.7 µM
  TGI: > 100 µM
SW-620 colon
  GI50: 42 µM
  TGI: > 100 µM

## COc1cccc2c1cc([N+](=O)[O-])c1c(C(=O)O)cc3c(c12)OCO3
BT-549 breast
  TGI: > 100 µM
HOP-92 NSCLC
  GI50: 23.3 µM
  TGI: 88.3 µM and > 100 µM
M14 melanoma
  TGI: > 100 µM
MCF7 breast
  GI50: 30.7 µM
  TGI: > 100 µM
MDA-MB-231 breast
  GI50: 59.9 µM
  TGI: > 100 µM
NCI-H23 lung
  GI50: 29.6 µM
  TGI: > 100 µM
NCI-H522 lung
  TGI: > 100 µM
SF-268 CNS
  GI50: 29 µM
  TGI: > 95.2 µM
SN12C renal
  GI50: 48.7 µM
  TGI: > 100 µM
SW-620 colon
  GI50: 28.2 µM
  TGI: > 100 µM

## COc1ccc2c(c1OC)-c1c(c3ccc([N+](=O)[O-])cc3c(=O)n1CCCN=[N+]=[N-])C2=O
BT-549 breast
  GI50: > 100 µM
  TGI: > 100 µM
HOP-92 NSCLC
  GI50: 20.3 µM
  TGI: > 100 µM
M14 melanoma
  GI50: 3.46 µM
  TGI: 10.6 µM
MCF7 breast
  GI50: 11.2 µM
  TGI: > 100 µM
MDA-MB-231 breast
  GI50: > 100 µM
  TGI: > 100 µM
NCI-H23 lung
  GI50: 17.5 µM
  TGI: > 100 µM
NCI-H522 lung
  GI50: 3 µM
  TGI: 51.7 µM
SF-268 CNS
  GI50: 30.3 µM
  TGI: > 100 µM
SN12C renal
  GI50: 11.5 µM
  TGI: > 100 µM
SW-620 colon
  GI50: 23.1 µM
  TGI: > 100 µM

## CCCC(=O)NC(c1ccc2c(c1)OCO2)c1ccc2cccnc2c1O (configuration not stated)
BT-549 breast
  GI50: 2.09 µM
  TGI: 83.7 µM
HOP-92 NSCLC
  GI50: 1.55 µM
  TGI: 36.1 µM
M14 melanoma
  GI50: 1.08 µM
  TGI: 20.6 µM
MCF7 breast
  GI50: 0.748 µM
  TGI: > 100 µM
MDA-MB-231 breast
  GI50: 1.64 µM
  TGI: > 100 µM
NCI-H23 lung
  GI50: 1.78 µM
  TGI: > 100 µM
NCI-H522 lung
  GI50: 1.63 µM
  TGI: > 100 µM
SF-268 CNS
  GI50: 1.46 µM
  TGI: > 100 µM
SN12C renal
  GI50: 2.28 µM
  TGI: > 100 µM
SW-620 colon
  GI50: 1.2 µM
  TGI: > 100 µM

## O=C1C=CN(C2OC(CO)C(O)C2O)C(=O)C1 (configuration not stated)
BT-549 breast
  TGI: > 2500 µM
HOP-92 NSCLC
  GI50: 13.6 µM and 66.2 µM
M14 melanoma
  TGI: > 2500 µM
MCF7 breast
  GI50: 4.63 µM
  TGI: 625 µM and > 2500 µM
MDA-MB-231 breast
  TGI: > 2500 µM
NCI-H23 lung
  GI50: > 625 µM and 356 µM
  TGI: > 2500 µM
NCI-H522 lung
  GI50: > 625 µM and 518 µM
  TGI: > 2320 µM
SF-268 CNS
  GI50: 172 µM and 231 µM
  TGI: 625 µM and > 2500 µM
SN12C renal
  GI50: 1.34 µM
SW-620 colon
  GI50: 71.4 µM
  TGI: 625 µM and > 2500 µM

## O=C(O)c1ccc(-c2ccc(C(=O)O)cc2I)c(I)c1
BT-549 breast
  GI50: > 100 µM
  TGI: > 100 µM
HOP-92 NSCLC
  GI50: > 100 µM
  TGI: > 100 µM
M14 melanoma
  GI50: > 100 µM
  TGI: > 100 µM
MCF7 breast
  GI50: > 100 µM
  TGI: > 100 µM
MDA-MB-231 breast
  GI50: > 100 µM
  TGI: > 100 µM
NCI-H23 lung
  GI50: > 100 µM
  TGI: > 100 µM
NCI-H522 lung
  GI50: > 100 µM
  TGI: > 100 µM
SF-268 CNS
  GI50: > 100 µM
  TGI: > 100 µM
SN12C renal
  GI50: > 100 µM
  TGI: > 100 µM
SW-620 colon
  GI50: > 100 µM
  TGI: > 100 µM

## COC(=O)[C@@H](Cc1c[nH]c2ccccc12)NC(=O)/C=C/c1ccccc1
BT-549 breast
  GI50: 4.1 µM
  TGI: 71.8 µM
HOP-92 NSCLC
  GI50: 0.235 µM
  TGI: 4.29 µM
M14 melanoma
  GI50: 3.05 µM
  TGI: > 100 µM
MCF7 breast
  GI50: 3.2 µM
  TGI: > 100 µM
MDA-MB-231 breast
  GI50: 2.93 µM
  TGI: 8.63 µM
NCI-H23 lung
  GI50: 4.32 µM
  TGI: > 100 µM
NCI-H522 lung
  GI50: 1.81 µM
  TGI: 30.5 µM
SF-268 CNS
  GI50: 4.52 µM
  TGI: > 100 µM
SN12C renal
  GI50: 4.49 µM
  TGI: > 100 µM
SW-620 colon
  GI50: 4.07 µM
  TGI: > 100 µM
